Converted amounts (≈) assume the structure as drawn.

In general, MIC90 refers to an inhibitory concentration at the 90% level, which refers to growth in some studies and to a panel of isolates in others.

Series [1] concerns 44 ligands (including receptors, transporters, ion channels, enzymes and kinases). Description: In vitro safety pharmacology binding assays (CEREP profile). The note with it: 10 μM, 44 ligands tested. The procedure:
In vitro pharmacology binding assays were carried out for compound (I), comparative compound (II) and comparative compound (III) to evaluate the percentage of inhibition against 44 ligands (including receptors, transporters, ion channels, enzymes and kinases) at a concentration of 10 μM of compound (I), comparative compound (II) or comparative compound (III). Compound binding was calculated as a percentage of inhibition of the binding of a radioactively labelled ligand specific for each target. Results showing an inhibition higher than 50% are considered to represent discernible effects of compound (I), comparative compound (II) or comparative compound (III). […] The in vitro pharmacology binding assays for compound (I) and comparative compounds (II) and (III) was carried out separately over different days, and compared in FIGS. 1a, 1b, 1c, and 1d.

In series [2] the test system is Klebsiella pneumoniae ATCC 43816. Kind of series: Further murine respiratory infection study, intravenous infusion. The note with it: 26 h. In kind it is in vivo. As to the method: Compound (I) was evaluated in further proof-of-concept studies in murine models for the treatment of a respiratory infection with Gram-negative bacteria of the order Enterobacterales, and a urinary tract infection with Gram-negative bacteria of the order Enterobacterales. Each dot, triangle or square indicator represents a single mouse. LOD refers to the limit of detection of the bacteria. […] Each of the proof-of-concept studies was carried out separately. By vehicle is meant pharmaceutically acceptable excipient or carrier. For the further proof-of-concept study for the treatment of a respiratory infection caused or exacerbated by Gram-negative bacteria of the order Enterobacterales, male CD-1 mice were infected with Klebsiella pneumoniae ATCC 43816. Two hours after infection (‘pre-treatment’ in FIG. 5), mice were either treated with a vehicle control (phosphate buffer) containing no compound (I), or a vehicle (phosphate buffer) containing compound (I), administered by intravenous infusion for 1 hour (QD) with a dose of 20 mg/kg of compound (I). For the mice that received the vehicle control containing no compound (I), and some mice who received the vehicle containing compound (I), an additional 1-hour continuous intravenous infusion was administered 3 hours after the time at which the first administration begun (BID, 3 hrs apart).

Series [3] concerns Proteus spp. (10 isolates). Description: MIC by broth microdilution (EUCAST), 10 isolates. Format: cell-based. The procedure: (§1) Minimum Inhibitory Concentration (MIC90) versus 100 isolates of Escherichia coli and Klebsiella pneumonia were determined. The Minimum Inhibitory Concentration at which 90% of the isolates (strains) are inhibited (MIC90) were measured by broth microdilution in line with EUCAST susceptibility testing standards (www.eucast.org). Bacterial inocula were prepared at ca 1×10^6 CFU/mL by diluting 100-fold a 0.5 McFarland suspension. Antibacterial panels containing 50 μl of antibacterial solutions at 2× the final concentrations were diluted 2-fold with 50 μl of inoculum to give a final inoculum of ca 5×10^5 CFU/ml and desired test concentrations of antibacterial agents (0.03-64 μg/mL). The plates were incubated according to the guidelines of the Clinical and Laboratory Standards Institute (Clinical and Laboratory Standards Institute. Methods for Dilution Antimicrobial Susceptibility Tests for Bacteria That Grow Aerobically; Approved Standard-Eleventh Edition, CLSI document […], 11 Jan. 2018). The MIC90 (μg/ml) is the MIC value at which greater than or equal to 90% of the isolates (strains) within a test population are inhibited. Minimum Inhibitory Concentrations (MICs) versus Proteus spp. and Providencia spp. were determined for compound (I) and comparative compound (III) using the methodology outlined above for the 100 isolates of Escherichia coli and Klebsiella pneumonia.
In general terms: In broth dilution the organism is exposed to a series of concentrations in liquid medium.

Series [4] concerns Providencia spp. (10 isolates). Kind of series: MIC by broth microdilution (EUCAST), 10 isolates. Format: cell-based. The procedure: as §1
The test system of series [5] is Klebsiella pneumonia (100 isolates). Description: MIC90 by broth microdilution (EUCAST), 100 isolates. In kind it is cell-based. As to the method: as §1, with “inhibited.” for “inhibited. Minimum Inhibitory Concentrations (MICs) versus Proteus spp. and Providencia spp. were determined for compound (I) and comparative compound (III) using the methodology outlined above for the 100 isolates of Escherichia coli and Klebsiella pneumonia.”

Series [6] has as its system Escherichia coli (100 isolates). The series is described as above. In kind it is cell-based. As to the method:
as §1, with “inhibited.” for “inhibited. Minimum Inhibitory Concentrations (MICs) versus Proteus spp. and Providencia spp. were determined for compound (I) and comparative compound (III) using the methodology outlined above for the 100 isolates of Escherichia coli and Klebsiella pneumonia.”

Series [7] concerns Klebsiella pneumoniae ATCC 43816. Description: Murine respiratory infection proof-of-concept study, IV bolus. Format: in vivo. As to the method:
Compound (I) and comparative compound (III) were evaluated in proof-of-concept studies in murine models for the treatment of a respiratory infection with Gram-negative bacteria of the order Enterobacterales, a bacteraemia or bloodstream infection with Gram-negative bacteria of the order Enterobacterales, and a urinary tract infection with Gram-negative bacteria of the order Enterobacterales. Each dot, triangle or square indicator represents a single mouse. LOD refers to the limit of detection of the bacteria. […] Each of the proof-of-concept studies was carried out separately. By vehicle is meant pharmaceutically acceptable carrier or excipient. For the proof-of-concept study for the treatment of a respiratory infection caused or exacerbated by Gram-negative bacteria of the order Enterobacterales, CD-1 mice were infected with Klebsiella pneumoniae ATCC 43816. Two hours after infection (‘pre-treatment’ in FIG. 2), a vehicle (20% hydroxypropyl β cyclodextrin) containing no compound (I) or comparative compound (III), or a vehicle (20% hydroxypropyl β cyclodextrin) containing compound (I) or comparative compound (III), was administered by IV bolus at 20 mg/kg, TID (8 hrs apart), over one day.

The nature of the next series: Permeability. Format: in vitro ADME.
[8] abbreviates: 1 h IV infusion 20 mg/kg twice (BID, 3 hrs apart).

As to `Cc1cnccc1-c1[nH]c(N)nc1-c1ccc2c(c1)N(C(=O)C(C)(C)N)CCO2` [Compound (I), 2-amino-1-(6-(2-amino-5-(3-methylpyridin-4-yl)-1H-imidazol-4-yl)-2,3-dihydro-4H-benzo[b][1,4]oxazin-4-yl)-2-methylpropan-1-one], the “ligands with inhibition higher than 50%” value in series [1] is “only a single ligand”. The results for the “reduction of bacterial burden in the lung compared to pre-treatment (stasis levels)” value in series [2] (1 h IV infusion 20 mg/kg once (QD)) and in series [2] (setting [8]) were 0.95 log and 1.80 log, respectively. Also, the “reduction of bacterial burden in the lung compared to vehicle” value in series [2] (setting [8]) was 5.20 log; in series [2] (male CD-1 mice, 1 h IV infusion 20 mg/kg once (QD)) it was 4.35 log; in series [7] (CD-1 mice, IV bolus 20 mg/kg TID over one day, 26 h from initial infection) it was 6.24 log. In addition, the “MIC Range” value in series [3] lay in the range of 8 to 32 µg/mL; in series [4], 0.5 to 16 µg/mL; in series [5] it was 0.25 to 8.00 µg/mL; in series [6], 0.12 to 4.00 µg/mL. Also, the MIC90 in series [5] (Klebsiella pneumoniae) came out at 2 µg/mL (≈ 5.1 µM); in series [6] it was 1 µg/mL (≈ 2.55 µM). The “more efficacious than comparative compound (III), lung” value in series [7] (difference in log reduction, 26 h) was found to be 2 log. The permeability entry in “Permeability” is “good permeability”.

These data come from patent publication US20240228474A1, “ANTIBACTERIAL COMPOUND” (DISCUVA LIMITED, priority 2021, published 2024).
